Values of other authors as cited in US20070207452A1, “Method of detecting micronucleus in cell” (Olympus Corporation, priority 2004, published 2007).

Tested on: bacteria
Settings: background statement; carcinogenic substances detected by the chromosomal aberration test

SMILES | result in the reverse mutation test
c1ccccc1 [benzene] | negative
CC/C(=C(/CC)c1ccc(O)cc1)c1ccc(O)cc1 [diethylstilbestrol] | negative
